# Assay results taken from patent US8580783B2, “[1,2,4]triazolo [1,5-c]pyrimidine derivatives as Hsp90 modulators” (Nerviano Medical Sciences S.r.l., priority 2010, dated 2013).
# Test system: Her2 protein levels in BT474 breast cancer cells
# Test: Her2 degradation assay (marker for Hsp90 inhibition)
# Type: cell-based
# Details: Homo sapiens, BT-474, 8 hours with compound, Her2 immunocytochemistry, ArrayScan vTi
# Protocol: Its inhibition impairs the capacity to fold or stabilize its client proteins, leading to the proteosomal dependent degradation of these unfolded proteins.
# Cellular Her2 levels were measured by immunocytochemistry, and quantified using an ArrayScan vTi instrument (Cellomics Thermo Scientific).
# Studies were performed as follows: 5000 cells/well are seeded in 96 well plates (Perkin Elmer) in DMEM/5% FCS and incubated for 48 hours at 37° C., 5% CO2.
# Medium is then replaced with fresh medium containing test compounds at the required concentration. Concentration curves are prepared in DMEM/10% FCS from compound stocks in DMSO, and final DMSO concentration is 0.1% (v/v). Duplicate wells for each concentration point are prepared, with a typical highest compound concentration of 30 μM. […] Non-specific binding sites are blocked by incubating wells for 1 hour in PBS containing 3% (w/v) BSA. […] At least 10 fields, corresponding to at least 900 cells, are read for each well.
smiles,measurement,value
"Nc1nc2c3c(F)cccc3nc(Cc3ccc4c(c3)OCO4)n2n1 [5-(1,3-benzodioxol-5-ylmethyl)-10-fluoro[1,2,4]triazolo[1,5-c]quinazolin-2-amine]",IC50,6.78 µM
